One experiment concerns the target Alpha glucosidase (Homo sapiens, UniProt O43451+P10253+P14410+Q2M2H8). Briefly: Inhibition of alpha-glucosidase (unknown origin) incubated for 20 mins before pNPG substrate addition and measured after 30 mins by UV spectrometry. The experiment is classed as protein assay.
Experiment [1] has as its system Saccharomyces cerevisiae. Briefly: Inhibition of Saccharomyces cerevisiae alpha-glucosidase at 669.57 uM incubated for 30 mins before pNPG substrate addition and measured after 10 mins by spectrophotometry relative to untreated control.
The test system of experiment [2] is Saccharomyces cerevisiae. The experiment in a line: Competitive inhibition of Saccharomyces cerevisiae alpha-glucosidase incubated for 30 mins before pNPG substrate addition and measured after 10 mins by spectrophotometry based Michaelis-Menten equation and Lineweaver-Burk plot analysis.
Experiment [3] deals with Saccharomyces cerevisiae. Briefly: Inhibition of Saccharomyces cerevisiae alpha-glucosidase at 3.54 uM incubated for 30 mins before pNPG substrate addition and measured after 10 mins by spectrophotometry relative to untreated control.
The test system of experiment [4] is Saccharomyces cerevisiae. Briefly: Inhibition of Saccharomyces cerevisiae alpha-glucosidase at 27.62 uM incubated for 30 mins before pNPG substrate addition and measured after 10 mins by spectrophotometry relative to untreated control.
For experiment [5], the system named is Saccharomyces cerevisiae. Briefly: Inhibition of Saccharomyces cerevisiae alpha-glucosidase incubated for 30 mins before pNPG substrate addition and measured after 10 mins by spectrophotometry.
Experiment [6] deals with Saccharomyces cerevisiae. Briefly: Non-competitive inhibition of Saccharomyces cerevisiae alpha-glucosidase assessed as substrate Km incubated for 15 mins before pNPG substrate addition and measured for 180 secs by spectrophotometry based Michaelis-Menten equation and Lineweaver-Burk plot analysis.
Experiment [7] concerns Saccharomyces cerevisiae. The experiment in a line: Non-competitive inhibition of Saccharomyces cerevisiae alpha-glucosidase assessed as substrate Vmax incubated for 15 mins before pNPG substrate addition and measured for 180 secs by spectrophotometry based Michaelis-Menten equation and Lineweaver-Burk plot analysis.

Active and inactive are the calls of the source. The calls are words filed in the database; no cut-off is given here.

Experimental findings from ChEMBL document CHEMBL4390635, “α-Glucosidase inhibition activity and in silico study of 2-(benzo[d][1,3]dioxol-5-yl)-4H-chromen-4-one, a synthetic derivative of flavone” (Bioorg Med Chem, 2019) are described below.

The term IC50 denotes the midpoint of a concentration-inhibition curve. The low end stands for greater potency, the high end for weaker potency. Take `Cc1cc(=O)oc2c(O)c(O)ccc12` [4-METHYLDAPHNETIN]: the IC50 at Alpha glucosidase was found to be 52 µM.

As a reminder, the inhibition is the share of the control response that was lost under treatment. In the case of `C[C@H]1O[C@H](O[C@H]2[C@H](O)[C@@H](O)[C@@H](O[C@H]3[C@H](O)[C@@H](O)C(O)O[C@@H]3CO)O[C@@H]2CO)[C@H](O)[C@@H](O)[C@@H]1N[C@H]1C=C(CO)[C@@H](O)[C@H](O)[C@H]1O` (some centres undefined), the inhibition in the experiment on Saccharomyces cerevisiae [1] was 97.7%. Besides, in the experiment with Saccharomyces cerevisiae [2], the inhibition result was “Active”.

As usually defined, the Vmax is the rate approached at saturating substrate. Consider `O=c1cc(-c2ccc3c(c2)OCO3)oc2ccccc12`, for which the figures for the inhibition in the experiment with Saccharomyces cerevisiae [3], in the experiment on Saccharomyces cerevisiae [4] and in the experiment with Saccharomyces cerevisiae [5] were 8.4%, 99.3% and “Dose-dependent effect”, respectively. The Km in the experiment on Saccharomyces cerevisiae [6] is 71.4 µM⁻¹. Moreover, in the experiment with Saccharomyces cerevisiae [7], the Vmax is 0.028 µmol/min.

On to H-RVPSLM-OH, for which the IC50 against Alpha glucosidase was 23.07 µM.
